Test results as given in US12186329B2 (President and Fellows of Harvard College, priority 2018, dated 2025).
Like-named read-outs stand apart in the source and are kept apart here.

Experiments:
[1] = test system: human intestinal L-cells (NCI-H716); experiment: GLP-1 secretion in human intestinal L-cells (NCI-H716); format: cell-based; conditions: for GLP-1 secretion in vitro: NCI-H716 L-cells, 2 hours; for GLP-1 secretion in vitro by CA7S extracted from cecal contents of SG mice: material extracted from mouse cecum
NCI-H716 cells = experiment: Calcium measurement in NCI-H716 cells; format: cell-based, human
Method: The cells were allowed to grow for 2 days in complete RPMI media. […] The concentration of DMSO was kept constant throughout the treatments and used as a negative control. Cells were incubated at 37° C. in an atmosphere of 5% CO2 for 2 hours. […] Cells on cell culture plates were placed on ice and gently washed with PBS (GenClone).

Caco-2 cells = experiment: Cell viability assay in Caco-2 cells; format: cell-based, human; conditions: overnight incubation
Method: Cell viability assay. […] The concentration of DMSO was kept constant and used as a negative control. […] Cell viability was measured in Countess II automated cell counter (Invitrogen). Percentage relative viability was calculated compared to DMSO control.

pH stability test = format: physicochemical; conditions: pH 1, 7.4 and 9, overnight at 37° C.
Method: pH stability test. […] Briefly, buffers of pH 1 (0.1 M HCl), pH 7.4 (PBS) and pH 9 (a 10 mM solution of ammonium formate adjusted to pH 9 with ammonium hydroxide) (all from Sigma) were prepared.

DIO mice [2] = experiment: In vivo enteral (duodenal and rectal) treatment of DIO mice: glucose, GLP-1, insulin, TGR5 expression; parameters: species or system mouse; conditions: for Systemic GLP-1 levels: within 15 min
DIO mice [3] = experiment: In vivo CA7S oral gavage: systemic GLP-1; parameters: species or system mouse; conditions: oral gavage 100 mg/kg, 5 hours post-treatment, vs PBS
DIO mice [4] = experiment: In vivo CA7S gavage and oral glucose tolerance test (OGTT); parameters: species or system mouse; conditions: gavage 100 mg/kg, vs vehicle
Method: (§1) Age matched, […] mice were kept on HFD and their blood glucose levels were monitored until average fasting glucose levels were >160 mg/dL. Animals were fasted for 4 hours on the day of the experiment. […] Three hours later, an OGTT was performed using an oral gavage of 2 mg/g oral D-glucose (Sigma-Aldrich, St. Louis, Mo.). Blood glucose levels were measured at baseline and at minutes 15, 30, 60 and 120 with a OneTouch glucometer.

DIO mice [5] = experiment: CA7S gavage and OGTT after lentiviral shRNA knockdown of GLP-1R; format: in vivo, mouse; conditions: GLP-1R shRNA knockdown, gavage 100 mg/kg, vs PBS
Method: as §1

[6] = In vivo CA7S oral gavage: CA7S concentration in tissues and blood
Method: Extraction. Cecal, liver, and human fecal samples (approximately 50 mg each) and mouse portal veins were pre-weighed in lysis tubes containing ceramic beads (Precellys lysing kit tough micro-organism lysing VK05 tubes for cecal, fecal samples, and portal veins; tissue homogenizing CIKMix tubes for liver samples; Bertin technologies, Montigny-le-Bretonneux, France). 400p L of methanol containing 10 μM internal standard (GCA) was added and the tubes were homogenized in a MagNA Lyser (6000 speed for 90 s*2, 7000 speed for 60 s). 50 μl of mouse serum was collected in Eppendorf tubes, followed by addition of 50 μL of methanol containing 10 μM internal standard (GCA). After vortexing for 1 min, the sample was cooled to −20° C. for 20 min. All methanol-extracted tissue samples were centrifuged at 4° C. for 30 min at 15,000 rpm. […]
UPLC-MS. […] Samples were analyzed using an Agilent Technologies 12990 Infinity 11 UPLC system coupled online to an Agilent Technologies 6120 Quadrupole LC/MS spectrometer in negative electrospray mode with a scan range of 350-550 m/z (MSD settings: fragmentor—250, gain—3.00, threshold—150, Step size—0.10, speed (u/sec)—743). […] For quantification of the analytes, standard curves were obtained using known bile acids, and then each analyte was quantified based on the standard curve and normalized based on the internal standard. […]

[7] = CA7S concentration in tissues and blood after enteral CA7S (UPLC-MS bile acid analysis)
[8] = listed as Cholic acid-7-sulfate

Compound: C[C@H](CCC(=O)O)[C@H]1CC[C@H]2[C@@H]3[C@H](OS(=O)(=O)O)C[C@@H]4C[C@H](O)CC[C@]4(C)[C@H]3C[C@H](O)[C@]12C [CA7S, cholic acid-7-sulfate]
- GLP-1 secretion after siRNA-mediated knockdown of TGR5 [1]: abolished GLP-1 secretion
- GLP-1 secretion in vitro [1]: to a similar degree as TDCA in a dose-dependent manner
- GLP-1 secretion in vitro [1, 8]: induces GLP-1 secretion in vitro better than the known GLP-1 inducer TDCA
- GLP-1 secretion in vitro by CA7S extracted from cecal contents of SG mice [1]: also induced GLP-1 secretion in vitro
- GLP-1 secretion in vitro by CA7S extracted from cecal contents of SG mice ([1]; listed as cholic acid-7-sulfate): exhibit activity inducing GLP-1 secretion in vitro
- Calcium levels in L-cells (NCI-H716 cells): dose-dependent increase in calcium levels
- Calcium levels in L-cells (NCI-H716 cells; [8]): increased calcium levels
- Toxicity in intestinal Caco cells (Caco-2 cells): no toxicity
- Stability at different pHs (pH stability test): stable in a wide range of pHs
- Insulin levels (DIO mice [2]; DIO mice, enteral, vs PBS): increased insulin levels
- TGR5 expression in colon and terminal ileum (DIO mice [2]; DIO mice, enteral CA7S): increased in the colon, but not the terminal ileum
- Blood glucose levels (DIO mice [2]; HFD-fed DIO mice, enteral 1 mg, 15 min, vs PBS): reduced blood glucose levels
- Systemic GLP-1 levels (DIO mice [2]; HFD-fed DIO mice, enteral 1 mg, vs PBS): increased systemic GLP-1 levels
- Systemic GLP-1 levels (DIO mice [2]; HFD-fed DIO mice, enteral 1 mg, vs PBS, listed as cholic acid-7-sulfate): induced GLP-1 levels
- Systemic levels of GLP-1 (DIO mice [3]): increased
- Total and incremental areas under the glucose versus time curves (AUC and iAUC) (DIO mice [4]): significantly decreased
- Glycemic curves and AUCs in OGTT in the absence of GLP-1R (DIO mice [5]): no significant differences in the glycemic curves or AUCs
- CA7S concentration (mean ± SEM), portal vein ([6]; DIO mice, CA7S gavage 100 mg/kg, 5 hours): 13.2 ± 7.7 pmol/µL
- CA7S accumulation in cecal contents (mean value) ([6]; oral gavage 100 mg/kg, 5 hours post-gavage): 15,000 picomol/mg wet mass
- CA7S concentration (mean ± SEM), cecum ([7]; DIO mice, enteral CA7S): 2577 ± 185 pmol/mg
- CA7S concentration (mean ± SEM), portal vein ([7]; DIO mice, enteral CA7S): 6.13 ± 2.11 pmol/mg
- CA7S concentration (mean ± SEM), systemic blood ([7]; DIO mice, enteral CA7S): 0.5 ± 0.2 pmol/µL
- CA7S in cecal contents (average) ([7]; administration of 1 mg via duodenal and rectal catheters): 2500 pmol/mg wet mass
- cholic acid-7-sulfate in the cecum ([7]; dosing with 1 mg): ~2500 µM
- Leak into systemic circulation and portal vein ([7]; ectopic (enteral) introduction): only minor amounts to leak into systemic circulation and in the portal vein

Compound: C[C@H](CCC(=O)O)[C@H]1CC[C@H]2[C@@H]3[C@H](O)C[C@@H]4C[C@H](O)CC[C@]4(C)[C@H]3C[C@H](O)[C@]12C [CA, cholic acid, reference compound]
- GLP-1 secretion in vitro [1]: had no effect on GLP-1 secretion
- GLP-1 secretion in vitro ([1]; listed as cholic acid): had no effect

Compound: C[C@H](CCC(=O)NCCS(=O)(=O)O)[C@H]1CC[C@H]2[C@@H]3CC[C@@H]4C[C@H](O)CC[C@]4(C)[C@H]3C[C@H](O)[C@]12C [TDCA, taurodeoxycholic acid, reference compound]
- GLP-1 secretion after siRNA-mediated knockdown of TGR5 ([1]; NCI-H716, TGR5 siRNA): abolished
